Measurements taken from patent US6784201B2, “Benzothiepines having activity as inhibitors of ileal bile acid transport and taurocholate uptake” (G.D. Searle & Company, priority 1994, dated 2004).

target: T1, human IBAT (Homo sapiens, UniProt Q12908); assay: In vitro assay of IBAT-mediated uptake of [14C]-taurocholate (TC) in H14 cells; assay type: cell-based; conditions: Human TC IC50
T1 construct: expressed in transfected cells; host or cells: Baby hamster kidney (BHK) cells, clone H14
T1 sequence (Q12908 1-348): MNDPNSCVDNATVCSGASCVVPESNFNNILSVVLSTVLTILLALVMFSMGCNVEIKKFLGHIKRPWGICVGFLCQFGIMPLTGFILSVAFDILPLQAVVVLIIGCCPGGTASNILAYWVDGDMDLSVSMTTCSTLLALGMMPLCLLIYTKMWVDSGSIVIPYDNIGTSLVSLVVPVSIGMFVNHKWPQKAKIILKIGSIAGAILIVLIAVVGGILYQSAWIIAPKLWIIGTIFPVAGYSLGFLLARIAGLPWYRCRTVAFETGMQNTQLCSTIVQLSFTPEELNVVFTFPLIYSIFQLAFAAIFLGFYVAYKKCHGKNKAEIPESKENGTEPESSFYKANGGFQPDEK
Summary of the method: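 BHK cells stably expressing human IBAT (H14) were incubated 2 h at 37° C with compound and 3 μM final [14C]-taurocholate in DMEM (4.5 g/L glucose) plus 0.2% fatty acid-free BSA. After cold PBS washes, cell-associated radioactivity was measured by scintillation counting.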

SMILES	IC50
CCCCC1(CC)CS(=O)(=O)c2ccc(N(C)C)cc2C(c2ccccc2)C1O (stereo not drawn) [Example 1159]	60 nM

same assay, conditions: read-out: Human TC IC50

SMILES	IC50
CCCCC1(CCCC)CS(=O)(=O)c2ccc(N(C)C)cc2C(c2cccc(OCCOCCOCC[N+](CC)(CC)CC(OCC)OCC)c2)C1O (stereo not drawn) [Example 1120]	10 nM
CCCCC1(CCCC)CS(=O)(=O)c2ccc(N(C)C)cc2C(c2cccc(OCCOCCOCC[n+]3ccc(C4CC=CCC4)cc3)c2)C1O (stereo not drawn) [Example 1121]	10 nM
CCCCC1(CCCC)CS(=O)(=O)c2ccc(N(C)C)cc2C(c2ccc(OCCOCC[N+](CC)(CC)CCN(CC)CC)c(F)c2)C1O (stereo not drawn) [Example 1122]	11 nM
CCCCC1(CCCC)CS(=O)(=O)c2ccc(N(C)C)cc2C(c2ccccc2)C1O (stereo not drawn) [Example 1123]	11 nM
CCCCC1(CCCC)CS(=O)(=O)c2ccc(N(C)C)cc2C(c2cccc(OC)c2)C1O (stereo not drawn) [Example 1124]	11 nM
CCCCC1(CCCC)CS(=O)(=O)c2ccc(N(C)C)cc2C(c2ccc(OC)c(Cl)c2)C1O (stereo not drawn) [Example 1125]	12 nM
CCCCC1(CC)CS(=O)(=O)c2ccc(N(C)C)cc2C(c2cccc(OCCOCCOCCI)c2)C1O (stereo not drawn) [Example 1126]	13 nM
CCCCC1(CCCC)CS(=O)(=O)c2ccc(N(C)C)cc2C(c2cccc(OCCOCCOCC[n+]3ccc(CCC)cc3)c2)C1O (stereo not drawn) [Example 1127]	13 nM
CCCCC1(CCCC)CS(=O)(=O)c2ccc(N(C)C)cc2C(c2ccc(O)c(F)c2)C1O (stereo not drawn) [Example 1128]	17 nM
CCCCC1(CCCC)CS(=O)(=O)c2c(cccc2N(C)C)C(c2ccc(F)cc2)C1O (stereo not drawn) [Example 1129]	18 nM
CCCCC1(CCCC)CS(=O)(=O)c2ccc(N(C)C)cc2C(c2ccc(F)c(Cl)c2)C1O (stereo not drawn) [Example 1130]	18 nM
CCCCC1(CC)CS(=O)(=O)c2ccc(N(C)C)cc2C(c2ccc(OC)cc2)C1O (stereo not drawn) [Example 1131]	20 nM
CCCCC1(CCCC)CS(=O)(=O)c2ccc(N(C)C)cc2C(c2cccc(OCCOCCOCC[n+]3ccc4c(c3)CCCC4)c2)C1O (stereo not drawn) [Example 1132]	20 nM
CCCCC1(CCCC)CS(=O)(=O)c2ccc(N(C)C)cc2C(c2ccc(CC#N)cc2)C1O (stereo not drawn) [Example 1133]	20 nM
CCCCC1(CC)CS(=O)(=O)c2ccc(N(C)C)cc2C(c2cccc(OCCCCOC(C)=O)c2)C1O (stereo not drawn) [Example 1134]	20 nM
CCCCC1(CCCC)CS(=O)(=O)c2ccc(N(C)C)cc2C(c2ccc(OC)c(OC)c2)C1O (stereo not drawn) [Example 1135]	21 nM
CCCCC1(CCCC)CS(=O)(=O)c2ccc(N(C)C)cc2C(c2cccc(OCCOCCOCCI)c2)C1O (stereo not drawn) [Example 1136]	21 nM
CCCCC1(CCCC)CS(=O)(=O)c2c(NN(C)C)cccc2C(c2ccc(F)cc2)C1O (stereo not drawn) [Example 1137]	21 nM
CCCCC1(CCCC)CS(=O)(=O)c2ccc(N(C)C)cc2C(c2cccc(OCCOCCOCC[n+]3ccc(C(C)(C)C)cc3)c2)C1O (stereo not drawn) [Example 1138]	22 nM
CCCCC1(CCCC)CS(=O)(=O)c2ccc(N(C)C)cc2C(c2ccc(F)c(F)c2)C1O (stereo not drawn) [Example 1139]	22 nM
CCCCC1(CCCC)CS(=O)(=O)c2ccc(NN(C)C)cc2C(c2cccc(OC)c2)C1O (stereo not drawn) [Example 1140]	23 nM
CCCCC1(CCCC)CS(=O)(=O)c2ccc(N(C)CC)cc2C(c2ccc(F)cc2)C1O (stereo not drawn) [Example 1141]	23 nM
CCCCC1(CCCC)CS(=O)(=O)c2ccc(N(C)C)cc2C(c2ccc(OCCOCCSCCN(CC)CC)c(F)c2)C1O (stereo not drawn) [Example 1142]	24 nM

SMILES	IC50
CCCCC1(CCCC)CS(=O)(=O)c2c(cccc2N(C)C)C(c2ccc(OC)cc2)C1O (stereo not drawn) [Example 1145]	29 nM
CCCCC1(CCCC)CS(=O)(=O)c2ccc(N(C)C)cc2C(c2ccc(OCCCCCCCCCC[N+](C)(C)C)cc2)C1O (stereo not drawn) [Example 1146]	29 nM
CCCCC1(CCCC)CS(=O)(=O)c2ccc(N(CC)CC)cc2C(c2cccc(OC)c2)C1O (stereo not drawn) [Example 1147]	29 nM
CCCCC1(CCCC)CS(=O)(=O)c2ccc([S+](C)C)cc2C(c2ccc(F)cc2)C1O (stereo not drawn) [Example 1148]	30 nM
CCCCC1(CCCC)CS(=O)(=O)c2ccc(NCC)cc2C(c2ccc(F)cc2)C1O (stereo not drawn) [Example 1149]	30 nM
CCCCC1(CCCC)CS(=O)(=O)c2ccc(N(C)CC)cc2C(c2cccc(OC)c2)C1O (stereo not drawn) [Example 1150]	30 nM
CCCCC1(CCCC)CS(=O)(=O)c2ccc(N(C)COCC)cc2C(c2ccccc2)C1O (stereo not drawn) [Example 1152]	36 nM
CCCCC1(CCCC)CS(=O)(=O)c2ccc(NC)cc2C(c2ccc(F)cc2)C1O (stereo not drawn) [Example 1153]	37 nM
CCCCC1(CCCC)CS(=O)(=O)c2c(OC)cccc2C(c2cccc(OC)c2)C1O (stereo not drawn) [Example 1154]	37 nM
CCCCC1(CCCC)CS(=O)(=O)c2ccc(C)cc2C(c2ccc(F)cc2)C1O (stereo not drawn) [Example 1155]	39 nM
CCCCC1(CCCC)CS(=O)(=O)c2ccc(SC)cc2C(c2ccc(F)cc2)C1O (stereo not drawn) [Example 1156]	39 nM
CCCCC1(CCCC)CS(=O)(=O)c2c(cc(F)cc2N(C)C)C(c2ccc(F)cc2)C1O (stereo not drawn) [Example 1157]	40 nM
CCCCC1(CCCC)CS(=O)(=O)c2ccc(OC)cc2C(c2ccncc2)C1O (stereo not drawn) [Example 1158]	60 nM
CCCCC1(CCCC)CS(=O)(=O)c2ccc(N(CC)CC)cc2C(c2ccc(F)cc2)C1O (stereo not drawn) [Example 1160]	62 nM
CCCCC1(CCCC)CS(=O)(=O)c2ccc(N(C)C)cc2C(c2cc(Cl)c(OC)c(Cl)c2)C1O (stereo not drawn) [Example 1161]	63 nM
CCCCC1(CCCC)CS(=O)(=O)c2ccc(N(C)C)cc2C(c2ccccc2)C1O (stereo not drawn) [Example 1162]	63 nM
CCCCC1(CCCC)CS(=O)(=O)c2ccc(OC)cc2C(c2cccc(N(C)C)c2)C1O (stereo not drawn) [Example 1163]	90 nM
CCCCC1(CCCC)CS(=O)(=O)c2ccc(OC)cc2C(c2ccncc2)C1O (stereo not drawn) [Example 1164]	93 nM
CCCCC1(CCCC)CS(=O)(=O)c2ccc([N+](C)(C)C)cc2C(c2ccc(OC)c(F)c2)C1O (stereo not drawn) [Example 1165]	110 nM
CCCCC1(CCCC)CS(=O)(=O)c2ccc([N+](C)(C)C)cc2C(c2cccc(O)c2)C1O (stereo not drawn) [Example 1166]	110 nM
C=CCOc1ccc(C2c3cc(N(C)C)ccc3S(=O)(=O)CC(CCCC)(CCCC)C2O)cc1Cl (stereo not drawn) [Example 1167]	120 nM
CCCCC1(CCCC)CS(=O)(=O)c2ccc([N+](C)(C)C)cc2C(c2ccc(O)cc2)C1O (stereo not drawn) [Example 1168]	120 nM
CCCCC1(CCCC)CS(=O)(=O)c2cc(N(C)C)ccc2C(c2ccccc2)C1O (stereo not drawn) [Example 1169]	120 nM

SMILES	IC50
CCCCC1(CCCC)CS(=O)(=O)c2ccc(N(C)C)cc2C(c2ccc(OS(=O)(=O)C(F)(F)F)cc2)C1O (stereo not drawn) [Example 1171]	140 nM
CCCCC1(CCCC)CS(=O)(=O)c2ccc(OC)cc2C(c2ccncc2)C1O (stereo not drawn) [Example 1172]	140 nM
CCCCC1(CC)CS(=O)(=O)c2ccc(-c3ccccc3)cc2C(c2cccc(OC)c2)C1O (stereo not drawn) [Example 1174]	150 nM
CCCCC1(CC)CS(=O)(=O)c2ccc(S(C)(=O)=O)cc2C(c2cccc(OC)c2)C1O (stereo not drawn) [Example 1175]	170 nM
CCCCC1(CCCC)CS(=O)(=O)c2c(F)cccc2C(c2ccc(F)cc2)C1O (stereo not drawn) [Example 1176]	180 nM
CCCCN(C)c1ccc2c(c1)C(c1cccc(OC)c1)C(O)C(CCCC)(CCCC)CS2(=O)=O (stereo not drawn) [Example 1177]	180 nM
CCCCC1(CCCC)CS(=O)(=O)c2ccc(N(C)C)cc2C(c2cccc(OS(=O)(=O)C(F)(F)F)c2)C1O (stereo not drawn) [Example 1178]	190 nM
CCCCC1(CCCC)CS(=O)(=O)c2cc(OC)ccc2C(c2ccccc2)C1O (stereo not drawn) [Example 1179]	190 nM
CCCCC1(CCCC)CS(=O)(=O)c2ccc([N+](C)(C)C)cc2C(c2ccccc2)C1O (stereo not drawn) [Example 1180]	200 nM
CCCCN(C)c1ccc2c(c1)C(c1ccc(F)cc1)C(O)C(CCCC)(CCCC)CS2(=O)=O (stereo not drawn) [Example 1181]	220 nM
CCCCC1(CCCC)CS(=O)(=O)c2ccc(OC)cc2C(c2ccc(N(C)C)cc2)C1O (stereo not drawn) [Example 1182]	250 nM
CCCCC1(CCCC)CS(=O)(=O)c2ccc(F)cc2C(c2cccc(OC)c2)C1O (stereo not drawn) [Example 1183]	280 nM
CCCCC1(CCCC)CS(=O)(=O)c2c(F)cc(F)cc2C(c2ccc(F)cc2)C1O (stereo not drawn) [Example 1184]	280 nM
CCCCC1(CCCC)CS(=O)(=O)c2ccc(F)cc2C(c2ccc(F)cc2)C1O (stereo not drawn) [Example 1185]	280 nM
CCCCC1(CCCC)CS(=O)(=O)c2c(F)cc(F)cc2C(c2ccccc2)C1O (stereo not drawn) [Example 1186]	300 nM
CCCCC1(CCCC)CS(=O)(=O)c2ccc(C)cc2C(c2ccc(F)cc2)C1O (stereo not drawn) [Example 1187]	320 nM
CCCCC1(CCCC)CS(=O)(=O)c2ccc([N+](C)(C)C)cc2C(c2ccc(OC)cc2)C1O (stereo not drawn) [Example 1188]	350 nM
CCCCC1(CCCC)CS(=O)(=O)c2ccc([N+](C)(C)C)cc2C(c2ccc(F)c(F)c2)C1O (stereo not drawn) [Example 1189]	350 nM
CCCCC1(CCCC)CS(=O)(=O)c2ccc(Br)cc2C(c2ccccc2Br)C1O (stereo not drawn) [Example 1190]	550 nM
CCCCC1(CCCC)CS(=O)(=O)c2ccc(O)cc2C(c2ccc(N(C)C)cc2)C1O (stereo not drawn) [Example 1191]	650 nM
CCCCC1(CCCC)CS(=O)(=O)c2ccc(O)cc2C(c2cccc(N(C)C)c2)C1O (stereo not drawn) [Example 1192]	1000 nM
CCCCC1(CCCC)CS(=O)(=O)c2ccc(N(C)C)cc2C(c2ccc(OCCOCCOCCOc3ccc(C4c5cc(N(C)C)ccc5S(=O)(=O)CC(CCCC)(CCCC)C4O)cc3F)c(F)c2)C1O (stereo not drawn) [Example 1194]	1600 nM
